Measured values from ChEMBL document CHEMBL1201862, “PubChem BioAssay data set” (2004).
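Interpolation was linear, between the two tested concentrations surrounding the appropriate level; five concentrations were tested over 48 hours in 96-well plates. Here, GI50 denotes the concentration required for 50% inhibition of growth.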 Calls of active or inactive are those of the source. Rule as the data show it: active = GI50 up to about 1.1 µM and inactive = higher. Residues, ends and D or L forms follow the SMILES beside them. *: point of attachment. Cbz = O=C(OCc1ccccc1)*; Boc = CC(C)(C)OC(=O)*; OSu = O=C1CCC(=O)N1O*; Bn = c1ccc(C*)cc1

Legend:
Test in all cases: inhibition of tumour cell growth, NCI panel, 48 h
COLO 205 = test system: COLO 205
TK-10 = test system: TK-10
UACC-257 = test system: UACC-257
PC-3 = test system: PC-3
SF-268 = test system: SF-268
T47D = test system: T47D
786-0 = test system: 786-0
SN12C = test system: SN12C
SW-620 = test system: SW-620
SK-MEL-5 = test system: SK-MEL-5
HCT-15 = test system: HCT-15
SF-295 = test system: SF-295
HOP-92 = test system: HOP-92
NCI-H23 = test system: NCI-H23
UACC-62 = test system: UACC-62
SK-MEL-2 = test system: SK-MEL-2
HOP-62 = test system: HOP-62
BT-549 = test system: BT-549
Hs-578T = test system: Hs-578T

| SMILES | GI50 (COLO 205) | GI50 (TK-10) | GI50 (UACC-257) | GI50 (PC-3) | GI50 (SF-268) | GI50 (T47D) | GI50 (786-0) | GI50 (SN12C) | GI50 (SW-620) | GI50 (SK-MEL-5) | GI50 (HCT-15) | GI50 (SF-295) | GI50 (HOP-92) | GI50 (NCI-H23) | GI50 (UACC-62) | GI50 (SK-MEL-2) | GI50 (HOP-62) | GI50 (BT-549) | GI50 (Hs-578T) |
| --- | --- | --- | --- | --- | --- | --- | --- | --- | --- | --- | --- | --- | --- | --- | --- | --- | --- | --- | --- |
| CC(=O)Nc1ccc(/C=C/C(=O)N2CC(CCl)c3c2cc(N)c2ccccc32)cc1 (configuration not stated) | 0.00893 µM (active) | < 0.005 µM (active) | 0.0156 µM (active) | < 0.005 µM (active) | < 0.005 µM (active) | 0.01 µM (active) | < 0.005 µM (active) | < 0.005 µM (active) | < 0.005 µM (active) | < 0.005 µM (active) | < 0.005 µM | < 0.005 µM (active) | < 0.005 µM (active) | < 0.005 µM (active) | < 0.005 µM (active) | < 0.005 µM (active) | < 0.005 µM (active) | 0.00624 µM (active) | – |
| O=C1N2CCN=C2c2ccccc2C1(O)c1ccccc1 (configuration not stated) | > 100 µM (inactive) | > 100 µM (inactive) | > 100 µM (inactive) | > 100 µM (inactive) | > 100 µM (inactive) | > 100 µM (inactive) | > 100 µM (inactive) | > 100 µM (inactive) | > 100 µM (inactive) | > 100 µM (inactive) | > 100 µM | > 100 µM (inactive) | > 100 µM (inactive) | > 100 µM (inactive) | > 100 µM (inactive) | – | > 100 µM (inactive) | > 100 µM (inactive) | > 100 µM (inactive) |
| COc1ccc(/C=N/n2c(-c3ccccc3)n[nH]c2=O)cc1 | > 100 µM (inactive) | – | > 100 µM (inactive) | > 100 µM (inactive) | > 100 µM (inactive) | > 100 µM (inactive) | > 100 µM (inactive) | > 100 µM (inactive) | > 100 µM (inactive) | – | > 100 µM | > 100 µM (inactive) | – | > 100 µM (inactive) | > 100 µM (inactive) | > 100 µM (inactive) | > 100 µM (inactive) | > 100 µM (inactive) | 50.1 µM (inactive) |
| C[C@H](CSC(=O)c1ccccc1)C(=O)N1c2ccccc2C[C@H]1C(=O)O | 63 µM (inactive) | > 100 µM (inactive) | > 100 µM (inactive) | > 100 µM (inactive) | > 100 µM (inactive) | > 100 µM (inactive) | > 10 µM (inactive) | > 100 µM (inactive) | 35.2 µM (inactive) | 67.8 µM (inactive) | 30.5 µM | > 100 µM (inactive) | – | > 100 µM (inactive) | > 100 µM (inactive) | – | > 100 µM (inactive) | > 100 µM (inactive) | > 100 µM (inactive) |
| COc1ccc(N2C(=O)C3CC4=CC(=O)C[C@H]4[C@H]32)cc1 (some centres not stated) | 52.5 µM (inactive) | 58.7 µM (inactive) | 64.9 µM (inactive) | 28.4 µM (inactive) | > 100 µM (inactive) | > 100 µM (inactive) | 26.3 µM (inactive) | 29.4 µM (inactive) | 66.1 µM (inactive) | – | 40.9 µM | > 100 µM (inactive) | – | > 100 µM (inactive) | 45.2 µM (inactive) | > 100 µM (inactive) | 44.9 µM (inactive) | 14.9 µM (inactive) | > 100 µM (inactive) |
| C[N+](C)(C)CC(=O)N/N=C(/CC(=O)CC(C1=C(O)c2ccccc2OC1)c1ccccc1)C(=O)Nc1cccc(Cl)c1 (configuration not stated) | > 100 µM (inactive) | > 100 µM (inactive) | > 100 µM (inactive) | > 100 µM (inactive) | > 100 µM (inactive) | > 100 µM (inactive) | > 100 µM (inactive) | > 100 µM (inactive) | > 100 µM (inactive) | > 100 µM (inactive) | > 100 µM | > 100 µM (inactive) | > 100 µM (inactive) | > 100 µM (inactive) | > 100 µM (inactive) | > 100 µM (inactive) | > 100 µM (inactive) | > 100 µM (inactive) | – |
| COc1ccc(N2C(=O)C3c4[nH]c5ccc(OCc6ccccc6)cc5c4C4CCC(C(C)(C)C)CC4C3C2=O)cc1 (configuration not stated) | > 100 µM (inactive) | 54.5 µM (inactive) | > 100 µM (inactive) | > 100 µM (inactive) | > 100 µM (inactive) | 17.5 µM (inactive) | 27.9 µM (inactive) | 78.5 µM (inactive) | 94.6 µM (inactive) | > 100 µM (inactive) | > 100 µM | > 100 µM (inactive) | – | > 100 µM (inactive) | > 100 µM (inactive) | > 100 µM (inactive) | > 100 µM (inactive) | > 100 µM (inactive) | 54.2 µM (inactive) |
| CN1CCN(c2ccc3nc(C4=C(O)C(=O)c5c(nc(CCl)n5C)C4=O)[nH]c3n2)CC1 | 10.3 µM (inactive) | – | 12.4 µM (inactive) | 16.9 µM (inactive) | 14.9 µM (inactive) | 0.796 µM (active) | 8.61 µM (inactive) | 9.98 µM (inactive) | 20 µM (inactive) | 24.2 µM (inactive) | 38 µM | 16.7 µM (inactive) | – | 11.5 µM (inactive) | 9.89 µM (inactive) | 10 µM (inactive) | 9.51 µM (inactive) | 9.79 µM (inactive) | 18.7 µM (inactive) |
| Cc1csc(NNC(N)=O)n1 | > 100 µM (inactive) | > 100 µM (inactive) | > 100 µM (inactive) | > 100 µM (inactive) | > 100 µM (inactive) | – | > 100 µM (inactive) | > 100 µM (inactive) | > 100 µM (inactive) | > 100 µM (inactive) | > 100 µM | > 100 µM (inactive) | > 100 µM (inactive) | > 100 µM (inactive) | > 100 µM (inactive) | > 100 µM (inactive) | > 100 µM (inactive) | > 100 µM (inactive) | > 100 µM (inactive) |
| N#Cc1c(NC(=S)Nc2ccc(Cl)cc2)sc2c1CCN(N1CCc3c(sc(NC(=S)Nc4ccc(Cl)cc4)c3C#N)C1)C2 | 16 µM (inactive) | 41 µM (inactive) | 29.7 µM (inactive) | 37.4 µM (inactive) | 38.9 µM (inactive) | 21.6 µM (inactive) | 21 µM (inactive) | 39.3 µM (inactive) | 30.1 µM (inactive) | 10.5 µM (inactive) | 24 µM | 16.1 µM (inactive) | – | 33 µM (inactive) | 10.6 µM (inactive) | 20.3 µM (inactive) | 16 µM (inactive) | 36.6 µM (inactive) | 44.8 µM (inactive) |
| CCOP(=O)(OCC)/C(C#N)=C/c1cccn1Cc1ccccc1 | 21.5 µM (inactive) | 40.9 µM (inactive) | 39.5 µM (inactive) | 31.9 µM (inactive) | 43.5 µM (inactive) | 16.9 µM (inactive) | 26.1 µM (inactive) | 31.1 µM (inactive) | 25.8 µM (inactive) | 16.1 µM (inactive) | 29 µM | 29.6 µM (inactive) | 13.5 µM (inactive) | 31.3 µM (inactive) | 19.9 µM (inactive) | 21.3 µM (inactive) | 40 µM (inactive) | 32.3 µM (inactive) | – |
| CCOC(=O)c1cc(C)nc2c1c(=O)n(-c1ccccc1)c(=O)n2CCCCN1CCN(c2ncccn2)CC1 | 60.1 µM (inactive) | > 100 µM (inactive) | 52.4 µM (inactive) | 61.4 µM (inactive) | > 100 µM (inactive) | 43.5 µM (inactive) | > 100 µM (inactive) | > 100 µM (inactive) | > 100 µM (inactive) | 35.2 µM (inactive) | – | > 100 µM (inactive) | 34.6 µM (inactive) | > 100 µM (inactive) | 37.2 µM (inactive) | > 100 µM (inactive) | > 100 µM (inactive) | 45.1 µM (inactive) | > 100 µM (inactive) |
| C[C@]12CC[C@H](O)CC1=CC[C@@H]1[C@@H]2CC[C@]2(C)/C(=N/OCCN3CCCC3)CC[C@@H]12 | 16 µM (inactive) | 24.1 µM (inactive) | 14.6 µM (inactive) | 17.8 µM (inactive) | 53.2 µM (inactive) | – | 18.1 µM (inactive) | 29 µM (inactive) | 16.4 µM (inactive) | 14.6 µM (inactive) | 12.1 µM | 19.4 µM (inactive) | – | 14.1 µM (inactive) | 15.5 µM (inactive) | 21 µM (inactive) | 21.3 µM (inactive) | 16.3 µM (inactive) | 22.9 µM (inactive) |
| Clc1ccc(-c2cc3nc4ccccc4nc3o2)cc1 | > 100 µM (inactive) | 32.7 µM (inactive) | 34.8 µM (inactive) | > 100 µM (inactive) | 63.8 µM (inactive) | > 100 µM (inactive) | 37.1 µM (inactive) | – | > 100 µM (inactive) | > 100 µM (inactive) | > 100 µM | 58.7 µM (inactive) | 47.2 µM (inactive) | > 100 µM (inactive) | 38.3 µM (inactive) | > 100 µM (inactive) | – | 35 µM (inactive) | 15.7 µM (inactive) |
| CC(C)(C)OC(=O)NC(Cc1ccc(OCc2ccccc2)cc1)C(=O)NC(CCCCNC(=O)OCc1ccccc1)C(=O)NC(CCCCNC(=O)OCc1ccccc1)C(=O)ON1C(=O)CCC1=O (configuration not stated) (Boc-Tyr(Bn)-Lys(Cbz)-Lys(Cbz)-OSu; configuration not given here) | 31.1 µM (inactive) | > 100 µM (inactive) | > 100 µM (inactive) | – | 40.2 µM (inactive) | 21 µM (inactive) | 20.8 µM (inactive) | > 10 µM (inactive) | – | 26 µM (inactive) | > 100 µM | 24 µM (inactive) | 51.2 µM (inactive) | 28.6 µM (inactive) | 15.7 µM (inactive) | 38.4 µM (inactive) | > 100 µM (inactive) | 17.9 µM (inactive) | 16.4 µM (inactive) |
